The results in this text go back to paper PMC4263271 (Nature, 2014).

Molecules are shown by their SMILES.

One assay deals with PHD-2/Egln1 (Homo sapiens, UniProt Q9GZT9). The assay is described as follows: DARTS with Western blot, HeLa lysate. Type of assay: binding. To be noted: TNC buffer pH 8.0, 10 mM CaCl2; room temperature.
The target of assay [1] is ATP5B (ATP synthase subunit beta) (Homo sapiens, UniProt P06576). The assay is described as follows: DARTS with LC-MS/MS. Type of assay: binding. To be noted: TNC buffer pH 8.0, 10 mM CaCl2; room temperature.
Chain of ATP5B (ATP synthase subunit beta) (P06576 48-529): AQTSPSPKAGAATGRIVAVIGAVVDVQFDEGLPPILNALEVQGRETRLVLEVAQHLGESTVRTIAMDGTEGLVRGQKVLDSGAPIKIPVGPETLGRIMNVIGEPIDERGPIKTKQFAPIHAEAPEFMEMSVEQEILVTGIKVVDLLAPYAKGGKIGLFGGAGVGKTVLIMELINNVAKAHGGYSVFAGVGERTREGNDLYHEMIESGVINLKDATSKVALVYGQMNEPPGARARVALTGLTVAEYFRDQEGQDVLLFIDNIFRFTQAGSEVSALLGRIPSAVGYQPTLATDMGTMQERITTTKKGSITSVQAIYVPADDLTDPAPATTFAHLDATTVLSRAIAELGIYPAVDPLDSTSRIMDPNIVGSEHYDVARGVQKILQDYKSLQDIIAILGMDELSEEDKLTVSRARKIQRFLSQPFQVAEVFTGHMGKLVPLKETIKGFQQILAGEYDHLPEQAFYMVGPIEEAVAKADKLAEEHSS

Chain of PHD-2/Egln1 (Q9GZT9 2-426): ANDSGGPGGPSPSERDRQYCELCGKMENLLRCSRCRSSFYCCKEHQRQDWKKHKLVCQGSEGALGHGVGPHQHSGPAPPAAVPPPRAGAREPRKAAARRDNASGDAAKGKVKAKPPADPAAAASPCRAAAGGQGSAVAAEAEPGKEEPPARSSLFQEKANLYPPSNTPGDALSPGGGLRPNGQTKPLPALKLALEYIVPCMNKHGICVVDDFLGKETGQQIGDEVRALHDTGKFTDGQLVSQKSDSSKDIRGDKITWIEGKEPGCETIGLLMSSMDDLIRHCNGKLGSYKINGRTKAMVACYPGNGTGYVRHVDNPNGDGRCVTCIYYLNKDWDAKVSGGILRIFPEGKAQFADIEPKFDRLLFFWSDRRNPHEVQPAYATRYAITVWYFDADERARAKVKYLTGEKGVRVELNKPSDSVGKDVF

On to `O=C(O)CCC(=O)C(=O)O` [α-KG], for which the “DARTS with Western blot, HeLa lysate” value on PHD-2/Egln1 is “Binding between α-KG and PHD-2/Egln1”. In addition, the “DARTS with LC-MS/MS (Jurkat) and Western blot (HeLa)” value in assay [1] is recorded as “DARTS confirms α-KG binding specifically to ATP5B”.
